Biological target: Src (Homo sapiens, UniProt P12931)
Assay: Src kinase inhibition (IC50)
Type: biochemical
Source text: Other assays are known from the literature and could readily be performed by the person skilled in the art (see, for example, Dhanabal et al., Cancer Res. 59:189-197; Xin et al., J. Biol. Chem. 274:9116-9121; Sheu et al., Anticancer Res. 18:4435-4441; Ausprunk et al., Dev. Biol. 38:237-248; Gimbrone et al., J. Natl. Cancer Inst. 52:413-427; Nicosia et al., In Vitro 18:538-549).

Chain of Src (P12931 whole entry, species assumed): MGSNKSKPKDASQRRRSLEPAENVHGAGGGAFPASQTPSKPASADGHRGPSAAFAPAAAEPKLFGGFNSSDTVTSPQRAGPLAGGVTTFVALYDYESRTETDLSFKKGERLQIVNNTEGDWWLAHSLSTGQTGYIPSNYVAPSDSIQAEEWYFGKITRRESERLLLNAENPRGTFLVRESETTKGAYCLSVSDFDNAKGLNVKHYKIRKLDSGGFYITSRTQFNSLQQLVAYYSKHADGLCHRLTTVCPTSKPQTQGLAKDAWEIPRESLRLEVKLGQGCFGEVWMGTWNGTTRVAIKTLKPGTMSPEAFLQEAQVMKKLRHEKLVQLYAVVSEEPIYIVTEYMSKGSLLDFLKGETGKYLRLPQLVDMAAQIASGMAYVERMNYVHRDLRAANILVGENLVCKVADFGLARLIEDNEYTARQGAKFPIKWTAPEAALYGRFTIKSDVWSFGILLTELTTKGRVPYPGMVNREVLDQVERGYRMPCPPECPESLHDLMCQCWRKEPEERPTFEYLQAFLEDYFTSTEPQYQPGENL

Structure (SMILES) | IC50 [nM]
CC(=O)N1CCc2[nH]c3nccc(Nc4c(Cl)ccc5c4OCO5)c3c2C1 [Example 15, 1-[4-(5-Chloro-benzo[1,3]dioxol-4-ylamino)-5,7,8,9-tetrahydro-dipyrido[2,3-b;3′,4′-d]pyrrol-6-yl]-ethanone] | 11 to 100
O=C(C1CCCC1)N1CCc2[nH]c3nccc(Nc4c(Cl)ccc5c4OCO5)c3c2C1 [Example 70, [4-(5-Chloro-benzo[1,3]-dioxol-4-ylamino)-5,7,8,9-tetrahydro-dipyrido[2,3-b;3′,4′-d]pyrrol-6-yl]-cyclopentyl-methanone] | 101 to 1000
O=C(C1CCCCC1)N1CCc2[nH]c3nccc(Nc4c(Cl)ccc5c4OCO5)c3c2C1 [Example 71, [4-(5-Chloro-benzo[1,3]-dioxol-4-ylamino)-5,7,8,9-tetrahydro-dipyrido[2,3-b;3′,4′-d]pyrrol-6-yl]-cyclohexyl-methanone] | 101 to 1000

More lines, now with the values ahead:

IC50 [nM] | Structure (SMILES)
101 to 1000 | O=C(c1ccccc1)N1CCc2[nH]c3nccc(Nc4c(Cl)ccc5c4OCO5)c3c2C1 [Example 67, [4-(5-Chloro-benzo[1,3]-dioxol-4-ylamino)-5,7,8,9-tetrahydro-dipyrido[2,3-b;3′,4′-d]pyrrol-6-yl]-phenyl-methanone]
101 to 1000 | O=C(C1CC1)N1CCc2[nH]c3nccc(Nc4c(Cl)ccc5c4OCO5)c3c2C1 [Example 68, [4-(5-Chloro-benzo[1,3]-dioxol-4-ylamino)-5,7,8,9-tetrahydro-dipyrido[2,3-b;3′,4′-d]pyrrol-6-yl]-cyclopropyl-methanone]
101 to 1000 | O=C(C1CCC1)N1CCc2[nH]c3nccc(Nc4c(Cl)ccc5c4OCO5)c3c2C1 [Example 69, [4-(5-Chloro-benzo[1,3]-dioxol-4-ylamino)-5,7,8,9-tetrahydro-dipyrido[2,3-b;3′,4′-d]pyrrol-6-yl]-cyclobutyl-methanone]
